Measured values: patent US8524740B2, “Synthesis and anticancer activity of aryl and heteroaryl-quinolin derivatives” (Tairx, Inc., priority 2010, dated 2013)
Blank lines part the entries; values can stand above or below the compound they belong to.

Columns and labels:
HT29/5FuR = experiment: MTT assay, HT29/5FuR cells; assay type: cell-based; conditions: Homo sapiens, HT-29, Table 1, 48 h
Description: (§1) MTT (3-(4,5-Dimethylthiazol-2-yl)-2,5-diphenyltetrazolium bromide) assays.^21,22 HL-60, HCT-116, Hep 3B, H460, Detroit 551 and HT29/FuR cells were treated with tested compounds for the indicated periods. After treatment, cells were washed once with PBS and incubated with MTT (Sigma, St. Louis, Mo., USA) for 2 h. The formazan precipitate was dissolved in 150 μL of DMSO, and the absorbance was measured with an ELISA reader at 570 nm.

HCT116 = experiment: MTT assay, HCT-116 cells; assay type: cell-based; conditions: Homo sapiens, Table 1, 48 h
Description: as §1
as §1, with “assays.” for “assays.^21,22”, “HCT-116, A549,” for “HCT-116,”, “KB, Kb-VIN” for “H460, Detroit 551”, “DU145” for “HT29/FuR”

Detroit 551 = experiment: MTT assay, Detroit 551 normal human cells; assay type: cell-based; conditions: Detroit 551
Description: as §1
(§2) HL-60, Hep 3B, H460, MES-SA, MES-SAID x5 and Detroit 551 cells were treated with vehicle or test compounds for 48 h. The cell growth rate was determined by MTT (3-(4,5-dimethyl-thiazol-2-yl)-2,5-diphenyltetrazoliun bromide) reduction assay.
as §1, with “assays.” for “assays.^21,22”, “HL-60,” for “HL-60, HCT-116,”, “H460, A498, Colo205 and” for “H460,”, “551” for “551 and HT29/FuR”

Hep3B = experiment: MTT assay, Hep 3B cells; assay type: cell-based; conditions: Homo sapiens
Description: as §1, §2
as §1, with “assays.” for “assays.^21,22”, “HCT-116, A549,” for “HCT-116,”, “KB, Kb-VIN” for “H460, Detroit 551”, “DU145” for “HT29/FuR”
as §1, with “assays.” for “assays.^21,22”, “HL-60,” for “HL-60, HCT-116,”, “H460, A498, Colo205 and” for “H460,”, “551” for “551 and HT29/FuR”

H460 = experiment: MTT assay, H460 cells; assay type: cell-based; conditions: Homo sapiens, NCI-H460
Description: as §1, §2
as §1, with “assays.” for “assays.^21,22”, “HL-60,” for “HL-60, HCT-116,”, “H460, A498, Colo205 and” for “H460,”, “551” for “551 and HT29/FuR”

HL-60 = experiment: MTT assay, HL-60 cells; assay type: cell-based; conditions: Homo sapiens
Description: as §1, §2
as §1, with “assays.” for “assays.^21,22”, “HCT-116, A549,” for “HCT-116,”, “KB, Kb-VIN” for “H460, Detroit 551”, “DU145” for “HT29/FuR”
as §1, with “assays.” for “assays.^21,22”, “HL-60,” for “HL-60, HCT-116,”, “H460, A498, Colo205 and” for “H460,”, “551” for “551 and HT29/FuR”

[1] = tested on: HL-60, HCT-116, Hep3B, H-460; experiment: Cytotoxicity screen (MTT) against human cancer cell lines, results in words; assay type: cell-based; conditions: comparison within sub-series or with CHM-2133
Description: as §1, §2

[2] = Table 1, 48 h, MTT, normal human cell
[3] = Homo sapiens, Table 2, B-1 series, 48 hrs

melting point: 132 to 134 °C
SMILES: COc1cc2c(cc1OCc1ccccc1)N=C(c1ccccc1F)CC2=O [Compound 22, 7-Benzyloxy-2-(2-fluorophenyl)-6-methoxyquinolin-4-one]

melting point: 283 to 285 °C
SMILES: CN(C)c1ccc2c(c1)C(=O)CC(c1ccc(OCc3ccccc3)cc1)=N2 [Compound 121, 2-(4-Benzyloxyphenyl)-6-dimethylaminoquinolin-4-one]

IC50 (HT29/5FuR): 2.03 µM
IC50 (HCT116): > 20 µM
IC50 (Hep3B; Table 1, 48 h, MTT): > 20 µM
IC50 (H460; Table 1, 48 h, MTT): > 20 µM
IC50 (HL-60; Table 1, 48 h, MTT): 3.7 µM
SMILES: COc1ccc2c(c1OC)C(=O)CC(c1ccccc1F)=N2 [Compound 16, 2-(2-Fluorophenyl)-5,6-dimethoxyquinolin-4-one]
IC50 (Detroit 551; [2]): > 20 µM

melting point: 307 to 308 °C
SMILES: CN(C)c1ccc2c(c1)C(=O)CC(c1cccc(OCc3ccccc3)c1)=N2 [Compound 118, 2-(3-Benzyloxyphenyl)-6-dimethylaminoquinolin-4-one]

melting point: 320 to 323 °C
SMILES: O=C1CC(c2ccc(OCc3ccccc3)cc2)=Nc2ccc(N3CCOCC3)cc21 [Compound 119, 2-(4-Benzyloxyphenyl)-6-morpholinoquinolin-4-one]

IC50 (Hep3B; Table 2, B-1 series, 48 hrs): > 100 µM
IC50 (H460; Table 2, B-1 series, 48 hrs): 84.8 µM
IC50 (HL-60; Table 2, B-1 series, 48 hrs): 93.8 µM
SMILES: COc1ccc(O)cc1C1=Nc2ccc(N3CCOCC3)cc2C(=O)C1 [Compound 143a, 2-(5-hydroxy-2-methoxyphenyl)-6-morpholinoquinolin-4-one]
IC50 (Detroit 551; [3]): > 100 µM

melting point: 321 to 323 °C
IC50 (Hep3B; Table 4, B-3 series, 48 hrs): 9 µM
IC50 (H460; Table 4, B-3 series, 48 hrs): 0.56 µM
IC50 (HL-60; Table 4, B-3 series, 48 hrs): 0.64 µM
SMILES: CN(C)c1ccc2c(c1)C(=O)CC(c1ccc(O)cc1)=N2 [Compound 142, 2-(4-Hydroxyphenyl)-6-dimethylaminoquinolin-4-one]
IC50 (Detroit 551; Homo sapiens, Table 4, B-3 series, 48 hrs): 75 µM

IC50 (HCT116): > 100 µM
IC50 (Hep3B; Table 1, 48 h, MTT): 100 µM
IC50 (H460; Table 1, 48 h, MTT): 100 µM
IC50 (HL-60; Table 1, 48 h, MTT): 38.6 µM
SMILES: O=C1CC(c2ccc(F)cc2)=Nc2ccc(O)c(O)c21 [Compound 42, 2-(4-Fluorophenyl)-5,6-dihydroxyquinolin-4-one]
cytotoxicity (in words) [1]: weaker
IC50 (Detroit 551; [2]): > 100 µM

melting point: 304 to 306 °C
SMILES: COc1cc(C2=Nc3ccc(N4CCCC4)cc3C(=O)C2)ccc1OCc1ccccc1 [Compound 123, 2-(4-(Benzyloxy)-3-methoxyphenyl)-6-pyrrolidinoquinolin-4-one]

melting point: 248 to 249 °C
SMILES: COc1cc2c(cc1OCc1ccccc1)N=C(c1ccc(F)cc1)CC2=O [Compound 24, 7-Benzyloxy-2-(4-fluorophenyl)-6-methoxyquinolin-4-one]

IC50 (HT29/5FuR): 1.63 µM
IC50 (HCT116): 0.6 µM
IC50 (Hep3B; Table 1, 48 h, MTT): 3.9 µM
IC50 (H460; Table 1, 48 h, MTT): 4.1 µM
IC50 (HL-60; Table 1, 48 h, MTT): 0.5 µM
SMILES: O=C1CC(c2ccccc2F)=Nc2ccc(O)c(O)c21 [Compound 40, 2-(2-Fluorophenyl)-5,6-dihydroxyquinolin-4-one]
cytotoxicity (in words) [1]: greater cytotoxicity
IC50 (Detroit 551; [2]): > 100 µM

melting point: 320 to 322 °C
SMILES: O=C1CC(c2cccc(OCc3ccccc3)c2)=Nc2ccc(N3CCCC3)cc21 [Compound 117, 2-(3-Benzyloxyphenyl)-6-pyrrolidinoquinolin-4-one]

melting point: 302 to 304 °C
IC50 (Hep3B; Table 2, B-1 series, 48 hrs): > 2.5 µM
IC50 (H460; Table 2, B-1 series, 48 hrs): > 2.5 µM
IC50 (HL-60; Table 2, B-1 series, 48 hrs): > 2.5 µM
SMILES: COc1ccc(C2=Nc3ccc(N4CCOCC4)cc3C(=O)C2)cc1 [Compound 132, 2-(4-Methoxyphenyl)-6-morpholinoquinolin-4-one]
IC50 (Detroit 551; [3]): > 2.5 µM

melting point: 340 to 342 °C
IC50 (Hep3B; Table 2, B-1 series, 48 hrs): > 10 µM
IC50 (H460; Table 2, B-1 series, 48 hrs): > 10 µM
IC50 (HL-60; Table 2, B-1 series, 48 hrs): 1.64 µM
SMILES: O=C1CC(c2ccc(O)cc2)=Nc2ccc(N3CCOCC3)cc21 [Compound 140, 2-(4-Hydroxyphenyl)-6-morpholinoquinolin-4-one]

melting point: 235 to 238 °C
SMILES: COc1cc(OCc2ccccc2)cc(C2=Nc3cc4c(cc3C(=O)C2)OCO4)c1 [Compound 165, 2-(3-Benzyloxy-5-methoxyphenyl)-6,7-methylenedioxyquinolin-4-one]
